Legend:
[1] = test system: IL-17A-induced G-CSF production in human normal keratinocyte (NHK); experiment: NHK assay: IL-17A-induced G-CSF production in normal human keratinocytes; format: cell-based; settings: IL-17A 5 ng/mL, 24 h, average if tested more than once
Summary of the method: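 IC50 derives from G-CSF in supernatants, quantified by HTRF from a standard curve, with CellTiter-Glo viability compared to DMSO control. Before a 24 h, 37°C culture of normal human keratinocytes at 3000–4000 cells/well, compound dilutions were preincubated 1 h at rt with human IL-17A (5 ng/mL final), with 0.2% DMSO and 5% FBS.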

[2] = target: T1, IL-17A : IL-17RA binding (Homo sapiens, UniProt Q16552, K93Q); experiment: IL-17A(FLAG-tagged):IL-17RA(His-tagged) binding disruption Eu-HTRF assay, Protocol 2; settings: FLAG-IL-17A 1 nM at 2x final concentration; average if tested more than once
T1 construct: Name: IL-17A-Flag
T1 sequence (Q16552 with tags, fused parts or gaps K93Q): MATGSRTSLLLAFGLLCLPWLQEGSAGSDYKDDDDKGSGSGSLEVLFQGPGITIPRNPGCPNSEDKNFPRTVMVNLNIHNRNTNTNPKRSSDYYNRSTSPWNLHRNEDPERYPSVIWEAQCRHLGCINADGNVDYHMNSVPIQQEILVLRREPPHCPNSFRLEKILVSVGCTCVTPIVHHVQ
Text: An antibody directed against the FLAG tag of IL-17A (SEQ ID NO: 1) is labeled with the HTRF donor chromophore (Europium-cryptate). IL-17A is present as a dimer that is “locked into” this quaternary structure due to the formation of loop-spanning […] disulfide bridges. The construct of IL-17RA used in the assay excludes the […] portion of the receptor and is fused to a C-terminal 10×His tag (SEQ ID NO:2). An antibody directed against the His tag of the IL-17RA chimera is labeled with the HTRF acceptor chromophore (“D2”). The fluorescence-resonance energy transfer (FRET) depends on the vicinity of the donor chromophore to the acceptor, and interruption of the binding between the IL-17A and IL-17RA causes the reduction/loss of FRET. Therefore, this assay allows to evaluate the compound effect on the binding IL-17A and IL-17RA by monitoring the fluorescence intensity of donor vs acceptor. The assay was run using either Protocol 1 or Protocol 2 as described below.
Protocol 2. 40 nl of 2-fold serial diluted compound solution for total 22 dilution points is added into each well of a 1536-well, white, low-volume, non-binding plate (Greiner #782904), then 2 μl of FLAG tagged IL-17A at 2× final concentration (1 nM) in solution of PBS+0.01% Triton-X100 is added to each well. The assay plate is briefly centrifuged then incubated for 1 h at rt. A mixed solution is prepared containing 2×5 nM 10HIS×IL-17RA, 2×2.5 nM Eu-anti-FLAG (CISBIO), 2×5 nM D2-anti-HIS (CISBIO) in PBS+0.01% Triton-X100+200 mM Potassium Fluoride (Sigma 60238) and 2 μl of mix is added to each well of the assay plate. The plate is briefly centrifuged then incubated for 2 h at rt. The HTRF intensities at the wavelength of donor (615 nm) and acceptor (665 nm) are measured using BMG Pherastar. The ratio between intensities at two wavelengths is calculated and plotted against the compound concentration and the data is fitted to a one-site competition model to yield IC50 of the compound.

[3] = target: T1, IL-17A : IL-17RA binding; experiment: IL-17A(FLAG-tagged):IL-17RA(His-tagged) binding disruption Eu-HTRF assay, Protocol 1; settings: FLAG-IL-17A 2.5 nM at 2x final concentration; average if tested more than once
Summary of the method: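 IC50 came from a one-site competition fit of the acceptor/donor (665/620 nm) HTRF ratio. His-tagged IL-17RA, Eu-anti-FLAG and D2-anti-His were added after a 1 h rt compound preincubation with FLAG-tagged IL-17A dimer in PBS/0.01% Triton X-100, followed by 2 h at rt before reading.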

Row | Structure (SMILES) | IC50 [2] [nM] | IC50 [3] [nM] | IC50 [1] [nM] | IC50 ([1]; Homo sapiens, Keratinocyte) [nM]
1 | CC(C)n1nccc1C(=O)N[C@H](c1nc2ccc([C@@H](C)NC(=O)CCC(F)(F)F)cc2[nH]1)C1CCC(F)(F)CC1 [Example 122, N—((S)-(4,4-Difluorocyclohexyl)(6-((R)-1-(4,4,4-trifluorobutanamido)ethyl)-1H-benzo[d]imidazol-2-yl)methyl)-1-isopropyl-1H-pyrazole-5-carboxamide] | > 100 | > 100 | – | < 50
2 | C[C@@H](OC1CC1)[C@H](NC(=O)c1nonc1C1CC1)c1nc2cc([C@@H](COC3CC3)NC(=O)CC3CC(F)(F)C3)ccc2[nH]1 [Example 276, N-((1R,2R)-2-Cyclopropoxy-1-(5-((S)-2-cyclopropoxy-1-(2-(3,3-difluorocyclobutyl)acetamido)ethyl)-1H-benzo[d]imidazol-2-yl)propyl)-4-cyclopropyl-1,2,5-oxadiazole-3-carboxamide] | 50 to 100 | – | – | < 50
3 | Cc1nonc1C(=O)N[C@H](c1nc2cc([C@@H](COC3CC3)NC(=O)CC3CC(F)(F)C3)ccc2[nH]1)[C@@H](C)O[C@@H](C)C(F)(F)F [Example 272, N-((1R,2R)-1-(5-((S)-2-Cyclopropoxy-1-(2-(3,3-difluorocyclobutyl)acetamido)ethyl)-1H-benzo[d]imidazol-2-yl)-2-(((S)-1,1,1-trifluoropropan-2-yl)oxy)propyl)-4-methyl-1,2,5-oxadiazole-3-carboxamide] | > 100 | – | – | < 50
4 | CC(C)n1nccc1C(=O)N[C@H](c1nc2cc([C@@H](COC3CC3)NC(=O)CC3CC(F)(F)C3)ccc2[nH]1)[C@@H](C)O[C@@H](C)C(F)(F)F [Example 273, N-((1R,2R)-1-(5-((S)-2-Cyclopropoxy-1-(2-(3,3-difluorocyclobutyl)acetamido)ethyl)-1H-benzo[d]imidazol-2-yl)-2-(((S)-1,1,1-trifluoropropan-2-yl)oxy)propyl)-1-isopropyl-1H-pyrazole-5-carboxamide] | > 100 | – | – | < 50
5 | Cc1nonc1C(=O)N[C@H](c1nc2cc([C@@H](COC3CC3)NC(=O)C[C@H]3CC3(F)F)ccc2[nH]1)[C@@H](C)OC(C)(C)C(F)(F)F [Example 270, N-((1R,2R)-1-(5-((S)-2-Cyclopropoxy-1-(2-((S)-2,2-difluorocyclopropyl)acetamido)ethyl)-1H-benzo[d]imidazol-2-yl)-2-((1,1,1-trifluoro-2-methylpropan-2-yl)oxy)propyl)-4-methyl-1,2,5-oxadiazole-3-carboxamide] | 50 to 100 | – | – | 50 to 100
6 | Cc1nonc1C(=O)N[C@@H](CO[C@@H](C)C(F)(F)F)c1nc2ccc([C@H](NC(=O)CC3CC(F)(F)C3)C3CC3)cc2[nH]1 (relative stereo) [Example 151, N—((R*)-1-(6-((R)-Cyclopropyl(2-(3,3-difluorocyclobutyl)acetamido)methyl)-1H-benzo[d]imidazol-2-yl)-2-(((S*)-1,1,1-trifluoropropan-2-yl)oxy)ethyl)-4-methyl-1,2,5-oxadiazole-3-carboxamide] | 50 to 100 | < 50 | – | > 100
7 | Cc1nonc1C(=O)N[C@H](c1nc2cc([C@@H](COC3CC3)NC(=O)CC3CC(F)(F)C3)ccc2[nH]1)[C@@H](C)OC(C)(C)C(F)(F)F [Example 271, N-((1R,2R)-1-(5-((S)-2-Cyclopropoxy-1-(2-(3,3-difluorocyclobutyl)acetamido)ethyl)-1H-benzo[d]imidazol-2-yl)-2-((1,1,1-trifluoro-2-methylpropan-2-yl)oxy)propyl)-4-methyl-1,2,5-oxadiazole-3-carboxamide] | 50 to 100 | – | – | < 50

Second part, led by results:

Row | IC50 [2] [nM] | IC50 [3] [nM] | Structure (SMILES) | IC50 [1] [nM] | IC50 ([1]; Homo sapiens, Keratinocyte) [nM]
8 | 50 to 100 | – | Cc1nonc1C(=O)N[C@H](c1nc2cc([C@@H](COC3CC3)NC(=O)CC3CC(F)(F)C3)ccc2[nH]1)[C@@H](C)O[C@@H](C)C(F)(F)F [Example 274, N-((1R,2R)-1-(5-((S)-2-Cyclopropoxy-1-(2-(3,3-difluorocyclobutyl)acetamido)ethyl)-1H-benzo[d]imidazol-2-yl)-2-(((S)-1,1,1-trifluoropropan-2-yl)oxy)propyl)-4-methyl-1,2,5-oxadiazole-3-carboxamide] | 50 to 100 | –
9 | 50 to 100 | – | Cc1nonc1C(=O)N[C@H](c1nc2cc([C@@H](COC3CC3)NC(=O)C[C@H]3CC3(F)F)ccc2[nH]1)[C@@H](C)O[C@H](C)C(F)(F)F [Example 275, N-((1R,2R)-1-(5-((S)-2-Cyclopropoxy-1-(2-((S)-2,2-difluorocyclopropyl)acetamido)ethyl)-1H-benzo[d]imidazol-2-yl)-2-(((R)-1,1,1-trifluoropropan-2-yl)oxy)propyl)-4-methyl-1,2,5-oxadiazole-3-carboxamide] | – | 50 to 100
10 | < 50 | < 50 | COC[C@H](NC(=O)CC1CC(F)(F)C1)c1ccc2nc([C@H](COC(C)(C)C(F)(F)F)NC(=O)c3nonc3C3CC3)[nH]c2c1 (relative stereo) [Example 164, 4-Cyclopropyl-N—((R)-1-(5-((R*)-1-(2-(3,3-difluorocyclobutyl)acetamido)-2-methoxyethyl)-1H-benzo[d]imidazol-2-yl)-2-((1,1,1-trifluoro-2-methylpropan-2-yl)oxy)ethyl)-1,2,5-oxadiazole-3-carboxamide] | – | < 50
11 | < 50 | < 50 | C[C@@H](NC(=O)CC1CC(F)(F)C1)c1ccc2nc(C(COC(C)(C)C(F)(F)F)NC(=O)c3nonc3C3CC3)[nH]c2c1 (single isomer, unassigned) [Example 152, 4-Cyclopropyl-N—((R*)-1-(6-((R)-1-(2-(3,3-difluorocyclobutyl)acetamido)ethyl)-1H-benzo[d]imidazol-2-yl)-2-((1,1,1-trifluoro-2-methylpropan-2-yl)oxy)ethyl)-1,2,5-oxadiazole-3-carboxamide] | – | < 50

— patent US20240376085A1 (Janssen Pharmaceutica NV, priority 2021, published 2024)
